Several values for one entry are separate records, joined by “and”; a condition that tells them apart may be missing. Identical values can stand only once.
Experiments:
[1] = test system: PBMCs; test: In vitro RMD impact on cell surface markers of PBMCs; format: cell-based, rhesus macaques; conditions: for CD3 expression (% of cells) on PBMCs: n = 3
Procedure: To assess the RMD impact on the expression of cellular and homing markers, fresh PBMCs collected from 3 SIV-naïve RMs were subjected to either no RMD treatment or escalating doses of RMD (2, 10, and 20 ng/ml). The PBMCs were incubated with RMD in RPMI1640 supplemented with 1% Penicillin/Streptomycin, 1% HEPES buffer, 1% L-glutamine, and 5% heat-inactivated bovine calf serum for 0, 1, 2, or 5 days. PBMCs were then stained with CD3-V500, CD4-Alexa Flour 700 (L200), CD8-PE-CF594, CCR4-PE-Cy7 (1G1), CCR5-APC (3AP), CCR7-PE (3D12), CCR9-FITC (112509) (R&D Systems, Minneapolis, MN, USA), β7-PE-Cy5 (FIB504), and LIVE/DEAD Fixable Blue Dead Cell Stain Kit (Thermo Fisher Scientific); all antibodies were from BD Biosciences unless otherwise noted. Stained PBMCs were acquired on a LSR-II and data were analyzed with FlowJo software (TreeStar).

[2] = Cortisol ELISA in plasma; format: in vivo, rhesus macaques (Macaca mulatta); conditions: RMD-infused RMs vs saline controls (peak 6 h, decreasing from day 1); n = 3 per group
Excerpt: Cortisol ELISA. To assess the levels of stress associated with the different animal procedures used, frozen plasma was thawed, and dilutions of either 1:16 to 1:50 were used to measure the circulating cortisol levels with a cortisol ELISA kit (ENZO, Farmingdale, NY, USA), as per manufacturer instructions. The results were read at 405 nm on a Ultrospec 2100 Pro (Amersham Biosciences, Little Chalfont, UK) and results interpolated by Prism 8.4.3 (GraphPad Software, Inc., San Diego, CA) using 4 parameter logistic curve fitting.

[3] = test system: peripheral CD4+ and CD8+ T cells; test: Apoptosis and activation of peripheral T cells (whole blood flow cytometry); format: in vivo, rhesus macaques (Macaca mulatta); conditions: n = 3
Procedure: Whole blood was stained to monitor the impact of RMD on the immune cell populations. TruCount was used to determine absolute counts of CD3^+, CD4^+, CD8^+ T cells and CD20^+ B cells as described ([51]–[53]). Fifty microliters of whole blood were stained with antibodies against CD3-V450, CD4-APC, CD20-APC-H7, and CD45-PerCP in TruCount tubes (BD Biosciences, Franklin Lakes, NJ, USA) with a set number of fluorescent beads as internal standards. CD8^+ T cell counts were assessed through the ratio of CD8^+ to CD3^+ T cells. Whole blood was also stained with combinations of the following fluorescently labeled antibodies: CD3-V450 (SP34-2), CD4-APC (L200), CD8-PE-CF594 (RPA-T8), CD14-PE-Cy7 (M5E2), CD38-FITC (AT-1) (Stemcell, Vancouver, BC, CA), CD20-APC-H7 (2H7), CD69-APC-Cy7 (FN50), CD95-FITC (DX2), CCR5-PE (3A9), Annexin V-FITC, HLA-DR-PE-Cy7 (L243), NKG2A-PE (Z199) (Beckman Coulter, Pasadena, CA), Strepavidin-Alexa Fluor 750 (Life Technologies, Carlsbad, CA), Biotin-CCR7 (eBioscience, San Diego, CA), LIVE/DEAD Fixable Blue Dead Cell Stain Kit (Thermo Fisher Scientific); all antibodies were from BD Biosciences unless otherwise noted. For Ki-67-PE (B56) intracellular staining, cells were fixed and permeabilized prior to Ki-67 staining. Data were acquired with a LSR-II flow cytometer (BD Biosciences) or Fortessa flow cytometer (BD Biosciences) and analyzed with FlowJo software 10.7.0 (Treestar, Ashland, OR), as described ([51], [54]).

[4] = RMD pharmacokinetics in plasma and tissues (LC-MS/MS); conditions: 7 mg/m^2 4-h IV infusion; for RMD plasma concentration at 2 h postinfusion: second round
[5] = kel from mean concentration-time profile of 3 RMs

For `C/C=C1\NC(=O)[C@H]2CSSCC/C=C/[C@H](CC(=O)N[C@H](C(C)C)C(=O)N2)OC(=O)[C@H](C(C)C)NC1=O` [RMD, romidepsin], the “CD3 expression (% of cells) on PBMCs” value ([1]; 2 ng/ml RMD, day 2, baseline 50%, no RMD 66%) was 48%, the “CD3 expression (% of cells) on PBMCs” value ([1]; 2 ng/ml RMD, day 5, baseline 50%, no RMD 61%) was 20% and the “CD3 expression (% of cells) on PBMCs” value ([1]; 10 ng/ml RMD, day 2, baseline 50%, no RMD 66%) was 30%. For the same compound, the “CD3 expression (% of cells) on PBMCs” value ([1]; 10 ng/ml RMD, day 5, baseline 50%, no RMD 61%) was 16%, the “CD3 expression (% of cells) on PBMCs” value ([1]; 20 ng/ml RMD, day 2, baseline 50%, no RMD 66%) was 32% and the “CD3 expression (% of cells) on PBMCs” value ([1]; 20 ng/ml RMD, day 5, baseline 50%, no RMD 61%) was 19%. The “CD3 expression (% of cells) on PBMCs” value ([1]; day 1, all dosage treatments (2, 10, 20 ng/ml)) was “minimal changes”, the “proportions of CD4− CD8− CD3+ T cells” value ([1]; with increasing dosages of RMD (2, 10, 20 ng/ml), p < 0.05) was “increased proportions” and the “plasma cortisol levels after infusion” value [2] was “remained elevated through 2 dpi”. For the same compound, the “frequency of apoptotic CD8+ T cells” value ([3]; 2 days postinfusion, baseline 2.1%, Annexin V and Live/Dead) was 4.6%, the “frequency of apoptotic CD4+ T cells” value ([3]; after RMD administration, baseline 3.7%, Annexin V and Live/Dead) was 1.8% and the “expression of T cell activation markers CD69 and Ki-67 on circulating CD4+ and CD8+ T cells” value ([3]; by 1 day postinfusion, not significant) was “increased”. For the same compound, the “GI tract terminal half-life relative to plasma” value [4] was 1.8 fold, the “LN terminal half-life relative to plasma” value [4] was “seven-fold longer” and the “plasma concentration at 8 h postinfusion” value [4] was 5.16 nM. For the same compound, the “time with quantifiable concentrations in GI tract” value ([4]; last sampling 10 days) was 10 days postinfusion, the “time with quantifiable concentrations in LNs” value ([4]; last sampling 10 days) was 10 days postinfusion and the “mean terminal half-life in plasma” value ([4]; 3 SIV-naïve RMs, kel from semi-log regression of individual plasma data, observations after 96 h omitted) was 15.3 h. The “RMD concentration in intestine at 4 h postinfusion” value ([4]; animal RM32) was 354 ng/g, the “RMD plasma concentration at 2 h postinfusion” value (“RMD plasma concentration” below) ([4]; animal RM32, LC-MS/MS) was 47 ng/mL and the “RMD concentration in intestine at 4 h postinfusion” value ([4]; animal RM33) was 3,932 ng/g. For the same compound, the “RMD plasma concentration” value ([4]; animal RM33, LC-MS/MS) was 7.7 ng/mL and 8 ng/mL, the “RMD plasma concentration” value ([4]; animal RM71, LC-MS/MS) was 4.7 ng/mL and 5 ng/mL and the “plasma concentration at 2 h postinfusion” value ([4]; group value of 3 RMs) was 19.9 ng/mL. The “RMD concentration in LNs at 4 h postinfusion” value ([4]; individual values of 3 RMs, superficial LNs, tissue density 1.0 g/ml assumed, LC-MS/MS) was 70 ng/mL and 75 ng/mL and 101 ng/mL, the “mean terminal half-life in gastrointestinal tract” value [4, 5] was 28 h and the “mean terminal half-life in lymph nodes” value [4, 5] was 110 h. The “RMD concentration in GI tract at 4 h postinfusion, median” value ([4]; median of 3 RMs, intestinal biopsies, LC-MS/MS) was 3,665 ng/g.

From paper PMC7759686, “Pharmacokinetics and Immunological Effects of Romidepsin in Rhesus Macaques” (Frontiers in Immunology, 2020)
